≈ marks a conversion by molar mass, not a printed value. Read-outs that look alike come from different tables or passages of the source.
Key:
[1] = system: S. aureus ATCC 29213; test: Membrane depolarization, DiSC3(5) fluorescence; type: cell-based; conditions: 30 min
Procedure: Bacteria were grown overnight in CAMHB and sub-cultured the following day in CAMHB to exponential phase (OD600≈0.25). Exponential- and stationary-phase cells were washed in membrane assay buffer with or without 5 mM glucose, respectively, and resuspended at an OD600=0.25. DiSC3(5) was added to a final concentration of 1.5 μM and the solution was incubated in the dark at ambient temperature for 30 minutes to allow loading of the fluorescent dye into cell membranes. After the loading period, cells were diluted 50-fold (OD600=0.005) in depolarization buffer with or without glucose for exponential- or stationary-phase cells, respectively. Assays were initiated by the addition of antimicrobial agents over a range of concentrations and were monitored in real time by fluorescence spectroscopy (λex=612, λem=665) for a period of 30 minutes. […] Experiments were repeated three times and produced similar results; results from one assay are presented.

[2] = system: S. aureus ATCC 29213; test: Membrane permeability, SYTO-9/propidium iodide fluorescence; type: cell-based; conditions: stationary-phase cells, 30 min
Procedure: For membrane permeability assays, bacteria were prepared identically as described above for the membrane depolarization assay with the exception that SYTO-9 and propidium iodide (Invitrogen Corporation) were added at 5 μM and 30 μM, respectively. Experiments were repeated three times and produced similar results; results from one assay are presented.

[3] = system: MRSA ATCC 33591; test: MBEC system in vitro biofilm (MIC and MBEC); type: cell-based, S. aureus
Procedure: (§1) The commercially-available MBEC™ system (Innovotech; Edmonton, AB, Canada) was used following the manufacturer's protocol (17) to establish in vitro biofilms of S. aureus and to determine the minimal biofilm eradication concentration (MBEC) of oritavancin and comparator antimicrobial agents. The MBEC represents the concentration of antimicrobial agent required to sterilize the biofilm after 24 hours of exposure. The MBEC™ system also allows for the determination of the minimal inhibitory concentration (MIC) of the test agent against planktonic cells under the conditions of the biofilm assay.
(§2) 150 μL of bacterial inocula at 10^7 CFU/mL in tryptic soy broth was aliquoted into each well of an MBEC plate. Biofilms were established for 24 hours in a rotary incubator at 37° C. and 150 rpm. For experiments involving 72-hour biofilms, peg lids were transferred each day to 96-well plates containing 150 μL/well of fresh tryptic soy broth and incubated another 24 hours. Peg lids with established biofilms were washed once in sterile saline (200 μL/well) and then placed in plates containing antimicrobial agents diluted in CAMHB (200 μL/well). Antimicrobial agents were serially diluted in CAMHB in 96-well plates and peg lids were exposed for 24 hours or for the indicated times. Following antimicrobial challenge, peg lids were washed once in sterile saline then placed in recovery plates containing CAMHB (200 μL/well). The recovery plates were sonicated for 5 minutes in an ultrasonic sonicating bath (VWR Aquasonic model 550D) at the maximum setting then incubated for 24 hours and the MBECs recorded. MBECs were determined from at least three independent experiments; results represent the ranges of MBECs obtained. To enumerate the biofilm colony forming units (CFUs) on individual control pegs, pegs were broken off the lid using sterile forceps placed in 1 ml sterile saline, sonicated for 5 min and vortexed for 1 min at the highest setting. Bacteria were then enumerated by serial-dilution plating.
(§3) To prevent loss of oritavancin due to binding to vessel surfaces (3), the CLSI now recommends inclusion of 0.002% polysorbate-80 for oritavancin broth microdilution MIC determinations (9).

[4] = system: MSSA ATCC 29213; test: MBEC system in vitro biofilm (MIC and MBEC); type: cell-based, S. aureus; conditions: for MIC: Staphylococcus aureus
Procedure: as §1, §2, §3

[5] = system: VRSA VRS5; test: MBEC system in vitro biofilm (MIC and MBEC); type: cell-based, S. aureus
Procedure: as §1, §2, §3

[6] = system: E. faecium ATCC 51559 (VanA VRE); test: MBEC plate biofilm eradication; type: cell-based; conditions: 24 h of drug challenge
Description: (§4) The following strains were used for in vitro biofilm studies: vancomycin (VAN)-susceptible Enterococcus faecalis ATCC 29212 (VSE), VAN-resistant E. faecalis ATCC 51299 (VanB VRE), E. faecium ATCC 51559 (VanA VRE), S. epidermidis ATCC 12228 and the slime-producing strain S. epidermidis ATCC 35984. Biofilms were established in MBEC™ Physiology & Genetics Assay plates (Innovotech; Edmonton, Canada).

[7] = system: S. epidermidis ATCC 12228; test: MBEC plate biofilm eradication; type: cell-based; conditions: single agents
Description: as §4

[8] = system: VAN-resistant E. faecalis ATCC 51299 (VanB VRE); test: MBEC plate biofilm eradication; type: cell-based; conditions: 24 h of drug challenge
Description: as §4

[9] = system: vancomycin (VAN)-susceptible Enterococcus faecalis ATCC 29212 (VSE); test: MBEC plate biofilm eradication; type: cell-based; conditions: 24 h of drug challenge
Description: as §4

[10] = system: S. epidermidis ATCC 35984; test: MBEC plate biofilm eradication, agents in combination; type: cell-based
Description: as §4

[11] = system: Staphylococcus epidermidis ATCC 35984; test: Prevention of in vitro biofilm formation on coated silicone tubing; type: cell-based; conditions: silicone tubing incubated overnight in 20 mg/ml solution; inoculum 10^5 or 10^7 CFU/ml
Procedure: Silicone tubing (0.040″ inner-diameter by 0.085″ outer-diameter by 0.023″ wall thickness; VWR International) was cut into 1 cm lengths then cut longitudinally in half. Cut tubing pieces were sterilized overnight in 99% ethanol. Tubing pieces were rinsed in 2 ml of sterile water then incubated overnight at room temperature in 20 mg/ml of either oritavancin or chloroeremomycin solution in water. Control tubing pieces were incubated in water as described. The following day, tubing pieces were rinsed in 2 ml of water then incubated with Staphylococcus epidermis ATCC 35984 at an inoculum density of either 10^5 CFU/ml or 10^7 CFU/ml in tryptic soy broth at 37° C. with rotation at 150 rpm in a rotational incubator. Tubing pieces were rinsed in 2 ml of sterile physiologic saline and bacteria in the biofilm formed on the silicone tubing were recovered by sonicating the tubing pieces in 1 ml of sterile physiologic saline in a sonicating water bath (VWR Aquasonic model 550D). Recovered bacteria were enumerated by serial dilution plating.

[12] = system: MSSA ATCC 29213; conditions: absence of 0.002% polysorbate-80; cited from earlier work
[13] = humans, cited from earlier work
[14] = 24-hour biofilm, 24 hours of exposure, oritavancin without polysorbate-80
[15] = standard dose (oritavancin 200 mg)

CN[C@H](CC(C)C)C(=O)N[C@H]1C(=O)N[C@@H](CC(N)=O)C(=O)N[C@H]2C(=O)N[C@H]3C(=O)N[C@H](C(=O)N[C@H](C(=O)O)c4cc(O)cc(O)c4-c4cc3ccc4O)[C@H](O[C@H]3C[C@](C)(N)[C@@H](O)[C@H](C)O3)c3ccc(c(Cl)c3)Oc3cc2cc(c3O[C@@H]2O[C@H](CO)[C@@H](O)[C@H](O)[C@H]2O[C@H]2C[C@](C)(NCc3ccc(-c4ccc(Cl)cc4)cc3)[C@@H](O)[C@H](C)O2)Oc2ccc(cc2Cl)[C@H]1O [Oritavancin, N-(4-(4-chlorophenyl)benzyl)A82846B]
dissipation of membrane potential (DiSC3(5) fluorescence) ([1]; exponential-phase cells): occurred in a concentration-dependent manner
dissipation of membrane potential (DiSC3(5) fluorescence) ([1]; stationary-phase cells): occurred in a concentration-dependent manner
membrane permeability (SYTO-9 fluorescence) [2]: increased membrane permeability
MBEC [3, 14]: 0.5 to 4 µg/mL
MIC ([3]; Staphylococcus aureus, 24 h): 0.5 to 4 µg/mL (≈ 0.279 to 2.23 µM)
MBEC ([4]; 24-hour biofilm, 1 hour exposure): 4 µg/mL
MBEC [4, 14]: 2 to 4 µg/mL
MBEC ([4]; 72-hour biofilms): 8 to 32 µg/mL
MBEC relative to respective planktonic MIC ([4]; 72-hour biofilms, within each experiment): no more than one doubling dilution higher
planktonic MIC relative to CLSI quality control range ([4]; MBEC assay): within quality control range
MIC ([4]; 24 h): 2 µg/mL (≈ 1.12 µM)
MIC ([4]; 72 h, read-out: planktonic MIC): 4 to 32 µg/mL (≈ 2.23 to 17.8 µM)
MBEC [5, 14]: 2 to 8 µg/mL
MIC ([5]; Staphylococcus aureus, VRSA, 24 h): 2 to 8 µg/mL (≈ 1.12 to 4.46 µM)
MBEC [6]: 2 to 4 mg/L
MBEC [7]: 2 to 4 mg/L
MBEC [8]: 2 to 4 mg/L
MBEC [9]: 2 to 4 mg/L
MBEC in combination ([10]; combination of ORI and MOX required for sterilization): 4 mg/L
MBEC in combination ([10]; combination of ORI and RFB required for sterilization): 4 mg/L
activity on a coated surface against biofilm formation [11]: significant activity
CLSI quality control range of MIC [12]: 0.5 to 2 µg/mL
predicted fCmax 800 in plasma ([13]; single 800 mg dose): 16 µg/mL
estimated fCmax in plasma [13, 15]: 4 µg/mL
estimated free trough concentration in plasma [13, 15]: 0.5 µg/mL

Reference: patent US10201587B2, “Methods of inhibiting and treating biofilms using glycopeptide antibiotics” (MELINTA THERAPEUTICS, INC., priority 2008, dated 2019)
